Laboratory results: patent US10064814B2, “Use of spider venoms for skin whitening/depigmenting and composition comprising spider venoms molecules or synthetic analogs” (priority 2012, dated 2018)
Entries after “also recorded” stand apart in the source; their conditions may differ. Read-outs that look alike come from different tables or passages of the source.

Columns and labels:
[1] = system: mushroom tyrosinase (DHICA oxidase activity); assay: DHICA oxidase-inhibiting activity by MBTH assay; type: biochemical, Agaricus bisporus; conditions: DHICA substrate 0.25 mM
Description: (§1) Mushroom (Agaricus bisporus) tyrosinase (SIGMA-ALDRICH, T3824) has both DHICA oxidase and DOPA oxidase activity ([…] et al, Pigment Cell Res., vol. 12(2), p: 118-25, 1999).
DHICA is used as substrate at 0.25 mM. MBTH was obtained from Alfa Aesar and DHICA was prepared according to […] & ITO, (Anal. Biochem., vol. 170(2), p: 335-40, 1988). Here, the MBTH method was used. This method consists to visualize the production of hydrazone-quinone adduct by spectrophotometry. The principle is that MBTH captures the indole-quinone which was generated by the oxidation of dihydroxyindole compounds. DHICA is converted to indole-5,6-quinone-2-carboxylic acid by the DHICA oxidase activity of mushroom tyrosinase, the indole product is trapped by MBTH and the complex formation can be detected at 492 nm (OLIVARES et al, Biochem. J., vol. 354, p: 131-139, 2001). • c) The DHICA oxidase inhibiting activity using mushroom tyrosinase was assayed in vitro. The procedure is the same as described by WINDER & HARRIS (Eur. J. Biochem., vol. 198(2), p: 317-26, 1991) for DOPA oxidase with minor modifications. Purification of the fractions
The experimental conditions are the same as previously mentioned. DHICA was used as substrate at 0.25 mM.

tyrosinase = type: cell-based, murine; conditions: α-MSH stimulated B16F10 cells, FIG. 16
Description: Western blot analyses were performed on B16F10 cells treated as previously described.

TRP1 = assay: Western blot analysis of TRP1 expression; type: cell-based, murine; conditions: α-MSH stimulated B16F10 cells, FIG. 16
Description: Cells were seeded at 1.10^6 cells/dish and cultivated in n-dish as previously described. After trypsination, the pelled were homogenized in a solution containing Sodium Dodecyl Sulphate (SDS) and were boiled 5 min at 96° C. to denature the proteins. Protein extracts were separated via a 10% SDS-PAGE for 1 h at 200 V and transferred onto a polyvinylidene difluoride membrane (GE healthcare Europe, Vélizy-villacoublay, France). The membranes were blocked overnight with 5% non-fat skim milk in a Tris-buffered saline solution containing 0.1% Tween. Membranes were incubated for 1 h at 37° C. with specific antibody against tyrosinase, TRP1 or MITF (C-19; G-17; N-15, 1:200 for Tyrosinase and TRP1 and 1:100 for MITF, Santa Cruz, Heidelberg, Germany) and actin as a control (C-11, 1:200, Santa Cruz). Membranes were incubated with secondary antibody coupled to horseradish peroxidase (HRP) for 2 h at room temperature (anti-goat 1:2500 for tyrosinase, TRP1 and MITF (ab 97120, Abcam, Paris, France) and anti-rabbit 1:2500 for actin (NA 934V, GE Healthcare)). […] Pre-stained protein markers were used for molecular weight.
To explore the mechanism of action of Argiotoxin in melanogenesis processes, we assess its ability to regulate the protein expression of two enzymes, the tyrosinase and TRP1 which is implicated in the biosynthesis of black/brown pigments specifically. […]

B16F10 cells [2] = assay: Measurement of melanin content in B16F10 melanoma cells (melanogenesis assay); type: cell-based, murine; conditions: for IC50: read-out: IC50 melanogenesis (melanin released in the medium)
Description: (§2) B16F10 were obtained from the American Type Culture Collection (ATCC CRL-6475, Manassas, Va., USA). Cells were cultured in Dulbecco's Modified Eagle Medium (DMEM) supplemented by 10% heat-inactivated foetal bovine serum (FBS, LONZA ltd., Basel, Switzerland) and penicillin/streptomycin (50 μg/ml) in a humidified atmosphere containing 5% CO2 at 37° C.
Determination of the extracellular melanin is considered as an index of melanogenesis. B16F10 cells were cultured in 24-well plate (5.10^4 cells/well) in a phenol red free medium and stimulated with 100 nM of α-MSH. […] To quantify the amount of melanin released in the medium, the absorbance of 200 μl of supernatant was read at 405 nm. The values were normalized by the measurement of total protein level present in each well.
Cells were washed with PBS1X and dissolved in 200 μl of NaOH 1N for 1 h at 60° C. The lysate was then centrifuged and the protein content determined by the Folin Lowry method, using the DC protein Assay kit from BIO-RAD (Marnes-la-Coquette, France). The absorbance is read at […].
B16F10 are murine melanoma cells, a cell line able to produce melanin and considered as an accurate model to assess melanogenesis inhibition. Cells were seeded at 5.10^4 cells/well in a P24 well plate and stimulated by 100 nM of α-MSH, the melanin-stimulating hormone. […] 48 h later, according to […] & EBERLE (Analytical Biochemistry, vol. 159(1), p: 191-7, 1986), the amount of melanin released in the medium was spectrophotometrically measured at 405 nm and normalised to the protein content.

B16F10 cells [3] = assay: LDH cell-based assay (cytotoxicity); set-up: species or system murine; conditions: 42.1 μM
B16F10 cells [4] = assay: Cell viability assay (MTT); type: cell-based, murine; conditions: 42.1 μM
Description: as §2
The evaluation of B16F10 cells survival relies on the reduction of the tetrazolium ring of water soluble MTT (3-[4,5-dimethylthiazol-2-yl]-2,5-diphenyltetrazolium bromide; Sigma Aldrich) into insoluble purple formazan crystals by the mitochondrial succinate dehydrogenase enzyme. The production of formazan directly reflects the number of living […] cells. B16F10 cells were seeded at 25000 per well in a 96-well plate and incubated in standard culture condition. […] Then, the supernatant was removed and replace by 50 μl of 0.5 mg/ml of MTT solution. The cells were exposed to MTT for 2 h. Finally, each well was washed by PBS1X and the crystals contained in wells are solubilized by adding 100 μl of DMSO. After briefly shaked the plate, the absorbance is measured at 600 nm.

[5] = biological target: mushroom tyrosinase (DOPA oxidase activity) (Agaricus bisporus, UniProt C7FF04); assay: DOPA oxidase inhibiting activity by spectrophotometry (mushroom tyrosinase assay); type: biochemical; conditions: FIG. 12
Description: as §1
The effect of different spider venoms on the DOPA oxidase activity was measured spectrophotometrically. The DOPA oxidase activity was determined using L-DOPA as substrate at 0.2 mM. The amount of DOPA chrome (red pigment) formed was measured against blank at 475 nm. The percentage of DOPA oxidase inhibition was obtained from: Inhibition percentage=[…]
With: • A: Absorbance at 475 nm of the reaction medium+inhibitor sample solution with enzyme • B: Absorbance at 475 nm of the reaction medium+inhibitor sample solution without enzyme (blank) • C: Absorbance at 475 nm of the reaction medium enzyme without inhibitor sample solution • D: Absorbance at 475 nm of the reaction medium without both enzyme and inhibitor sample solution […]
For the DOPA activity assay: 500 μL of the L-DOPA solution at 0.4 mM is mixed with different volumes according to the different natural inhibitors at 10 mg/mL, and 5 μL of the mushroom tyrosinase solution (added last to initiate the enzymatic reaction and must be kept in ice). […] The absorbance is measured at 475 nm every minute for 15 min using a UV-VIS spectrophotometer BIOMATE 5®. […]

mushroom tyrosinase (DOPA oxidase activity), sequence (C7FF04 1-392): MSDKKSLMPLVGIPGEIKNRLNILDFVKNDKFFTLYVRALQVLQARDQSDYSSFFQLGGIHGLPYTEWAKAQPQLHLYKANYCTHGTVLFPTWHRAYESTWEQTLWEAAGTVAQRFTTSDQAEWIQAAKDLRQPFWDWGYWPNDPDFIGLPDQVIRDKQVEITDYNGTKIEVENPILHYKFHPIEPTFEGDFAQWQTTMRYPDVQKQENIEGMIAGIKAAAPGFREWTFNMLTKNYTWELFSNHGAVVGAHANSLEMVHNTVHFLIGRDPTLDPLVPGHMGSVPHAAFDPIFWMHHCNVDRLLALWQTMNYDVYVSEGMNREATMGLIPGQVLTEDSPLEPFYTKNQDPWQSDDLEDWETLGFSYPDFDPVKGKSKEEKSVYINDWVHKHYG
mushroom tyrosinase (DOPA oxidase activity), sequence (G1K3P4 1-150 partner): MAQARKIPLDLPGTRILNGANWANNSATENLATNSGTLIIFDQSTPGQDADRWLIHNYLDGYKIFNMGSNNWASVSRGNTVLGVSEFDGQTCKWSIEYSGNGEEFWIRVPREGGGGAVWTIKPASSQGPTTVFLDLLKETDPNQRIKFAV

| SMILES | inhibition of DHICA oxidase activity [1] | expression of tyrosinase protein (tyrosinase) | expression of TRP1 protein (TRP1) | fold higher activity on the cellular assay compared with DHPA (B16F10 cells [2]; B16F10 melanogenesis) | IC50 (B16F10 cells [2]; Mus musculus, B16-F10, 48 h) | cytotoxicity (LDH) (B16F10 cells [3]) | cell death (MTT) (B16F10 cells [4]) | IC50 (B16F10 cells [2]; Mus musculus, B16-F10, B16F10, 100 nM α-MSH, 48 h treatment) | IC50 [5] | type of inhibition of DOPA oxidase activity ([5]; suggested from dose-response) | IC50 (B16F10 cells [2]; B16F10, 100 nM α-MSH, 48 h treatment) |
| --- | --- | --- | --- | --- | --- | --- | --- | --- | --- | --- | --- |
| N=C(N)NCCC[C@H](N)C(=O)NCCCNCCCNCCCCCNC(=O)[C@H](CC(N)=O)NC(=O)Cc1ccc(O)cc1O [Argiotoxin, Argiotoxin-636] | dose-dependent inhibition is visible up to 100 μM; also recorded: dose-dependent manner up to 75 μM | significant inhibition | significant inhibition | 100 fold | ~0.01 µM | neither cell death nor cytotoxicity | neither cell death nor cytotoxicity |  |  |  |  |
| O=c1cc(CO)occ1O [Kojic acid, Kojic Acid, reference compound] |  |  | faintly decreases |  |  |  |  | ~5 µM |  |  |  |
| O=C(O)Cc1ccc(O)cc1O [2,4-DHPAA] |  |  |  |  |  |  |  |  | ~6000 µM | competitive inhibitor | ~5 µM |
